Results published in patent US6362208B1, “Anilide compounds and drugs containing the same” (Kowa Company, Ltd., priority 1997, dated 2002).

Experiments:
[1] = target: T1, ACAT, small intestine-derived enzyme (Oryctolagus cuniculus, UniProt G1SFD9); experiment: ACAT inhibitory action, small intestine-derived enzyme; assay type: biochemical; settings: rabbit small intestine enzyme solution, 14C-Oleoyl-CoA, 37° C., 3 minutes
T1 sequence (G1SFD9 1-524): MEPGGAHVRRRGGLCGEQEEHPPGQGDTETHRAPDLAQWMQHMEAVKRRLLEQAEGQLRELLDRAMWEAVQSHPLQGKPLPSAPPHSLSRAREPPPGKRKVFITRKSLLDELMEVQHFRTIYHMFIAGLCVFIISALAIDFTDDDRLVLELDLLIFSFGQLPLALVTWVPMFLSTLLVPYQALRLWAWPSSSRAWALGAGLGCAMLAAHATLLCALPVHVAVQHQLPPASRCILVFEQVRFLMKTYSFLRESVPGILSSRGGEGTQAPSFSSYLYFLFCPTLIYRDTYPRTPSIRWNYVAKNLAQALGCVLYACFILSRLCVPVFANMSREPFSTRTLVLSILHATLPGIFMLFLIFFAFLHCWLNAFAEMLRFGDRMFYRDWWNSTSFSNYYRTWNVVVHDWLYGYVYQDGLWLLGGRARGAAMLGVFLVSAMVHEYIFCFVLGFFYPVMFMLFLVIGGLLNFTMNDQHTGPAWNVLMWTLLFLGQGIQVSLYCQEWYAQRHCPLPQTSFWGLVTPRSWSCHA
Description: (§1) In a conventional manner, microsome was prepared from the thoracic aorta of a rabbit fed with a 1% cholesterol diet for 8 weeks, which was then suspended in 0.15 M phosphate buffer, pH 7.4, to prepare an enzyme solution. An enzyme solution was prepared from a rabbit small intestine on normal diet, which was defined as an enzyme solution derived from small intestine.
(§2) 10 μl of an enzyme solution was added to the resulting solution for reaction at 37° C. for […] (small intestine-derived enzyme solution was subjected to reaction for 3 minutes). Subsequently, the reaction was terminated by adding 3 ml of chloroform/methanol (2/1) and 0.5 ml of 0.04 N hydrochloric acid to the reaction solution, to extract lipid. The solvent layer was concentrated and dried, which was then dissolved in hexane and spotted on a TLC plate (manufactured by Merck, Co.). The plate was eluted with hexane:ether:acetic acid (75:25:1). The radioactivity of the resulting cholesterol ester fraction was assayed by BAS 2000 (manufactured by Fuji Photo Film, Co., Ltd.). Compared with the radioactivity of a control prepared by single addition of DMSO, IC50 was determined.

ACAT in J774 cells = target: T2, ACAT in J774 cells (Mus musculus, UniProt Q61263); experiment: ACAT inhibitory action (anti-foaming action) in J774 cells, cholesterol ester formation; assay type: cell-based; settings: for IC50: J774 cells, 10 μg/ml 25-OH cholesterol, 18-hr culturing, cholesterol ester per protein, read-out: IC50 (μM) of J774-derived enzyme; for IC50 (HepG2)/IC50 (J774): ratio HepG2 / J774
T2 construct: J774 cells or HepG2 cells were inoculated on a 24-well plate; endogenous in cells; host or cells: J774 cells
T2 sequence (Q61263 1-540): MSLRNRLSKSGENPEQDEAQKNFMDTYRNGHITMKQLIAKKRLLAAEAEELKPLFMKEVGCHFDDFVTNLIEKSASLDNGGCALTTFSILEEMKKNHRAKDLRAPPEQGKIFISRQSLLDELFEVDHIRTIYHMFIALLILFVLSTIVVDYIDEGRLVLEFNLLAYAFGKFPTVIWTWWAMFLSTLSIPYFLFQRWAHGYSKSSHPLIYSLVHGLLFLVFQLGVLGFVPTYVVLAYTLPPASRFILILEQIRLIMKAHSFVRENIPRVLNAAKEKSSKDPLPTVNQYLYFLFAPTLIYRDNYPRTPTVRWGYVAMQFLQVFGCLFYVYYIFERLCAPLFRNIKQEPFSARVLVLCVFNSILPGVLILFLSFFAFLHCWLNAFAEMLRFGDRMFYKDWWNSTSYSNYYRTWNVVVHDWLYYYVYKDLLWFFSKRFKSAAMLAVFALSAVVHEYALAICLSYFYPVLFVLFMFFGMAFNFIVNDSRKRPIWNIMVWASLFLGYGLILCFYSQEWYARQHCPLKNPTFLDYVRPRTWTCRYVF
Description: (§3) J774 cells or HepG2 cells were inoculated on a 24-well plate; J774 cells and HepG2 cells were cultured in DMEM and MEM culture broths (each of the broths containing 10% calf fetus serum), respectively, in a 5% CO2 incubator at 37° C. for 24 hours. […] After discarding the culture media, the resulting cultures were rinsed twice with PBS and extracted with 1.5 ml of hexane:isopropanol (3:2), for concentration and drying. The extracts were dissolved in isopropanol containing 0.2 ml of 10% Triton X-100, to assay total cholesterol (TC) and free cholesterol (FC) by using Cholesterol E Test WAKO (manufactured by Wako Pure Chemicals, Co.) and Free Cholesterol E Test Wako (manufactured by Wako Pure Chemicals, Co.). […] Based on the difference between TC and FC, cholesterol ester was calculated per protein, to determine IC50, compared with the calculated control IC50 value.

[2] = target: ACAT, vascular wall-derived enzyme (Oryctolagus cuniculus, UniProt G1SUQ0); experiment: ACAT inhibitory action, vascular wall-derived enzyme (microsome from thoracic aorta of cholesterol-fed rabbit); assay type: biochemical; settings: 14C-Oleoyl-CoA, 37° C.
Description: as §1, §2

ACAT in HepG2 cells = experiment: ACAT inhibitory action in HepG2 cells, cholesterol ester formation; assay type: cell-based; settings: 10 μg/ml 25-OH cholesterol, 18-hr culturing, cholesterol ester per protein, read-out: IC50 (μM) of HepG2-derived enzyme
Description: as §3

ACAT, vascular wall-derived enzyme, sequence (G1SUQ0 entry or part of it): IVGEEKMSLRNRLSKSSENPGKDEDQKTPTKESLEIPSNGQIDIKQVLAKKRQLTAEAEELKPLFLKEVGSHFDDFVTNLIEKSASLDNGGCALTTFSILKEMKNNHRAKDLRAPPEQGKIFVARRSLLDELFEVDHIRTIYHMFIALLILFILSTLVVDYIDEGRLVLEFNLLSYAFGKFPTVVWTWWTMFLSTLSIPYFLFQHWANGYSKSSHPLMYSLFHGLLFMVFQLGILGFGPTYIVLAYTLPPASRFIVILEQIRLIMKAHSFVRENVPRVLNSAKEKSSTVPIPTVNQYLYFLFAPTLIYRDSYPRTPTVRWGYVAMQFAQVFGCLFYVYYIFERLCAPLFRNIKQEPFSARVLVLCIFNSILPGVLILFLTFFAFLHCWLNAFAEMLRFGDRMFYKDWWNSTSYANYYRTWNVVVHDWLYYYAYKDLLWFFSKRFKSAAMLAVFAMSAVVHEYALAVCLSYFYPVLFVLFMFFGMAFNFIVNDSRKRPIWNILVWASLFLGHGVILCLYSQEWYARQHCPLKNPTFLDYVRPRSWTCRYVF

IC50 (ACAT in HepG2 cells) [µM] | melting point [°C] | Structure (SMILES) | IC50 [1] [µM] | IC50 (ACAT in J774 cells) [µM] | IC50 (HepG2)/IC50 (J774) (ACAT in J774 cells) | IC50 [2] [µM]
 |  | CCCCCCCCCN(CC(C)(C)C)C(=O)N[C@H]1CCCC[C@@H]1OC(=O)CCNC(=O)C1OC(C)(C)OCC1(C)C (stereo partly drawn) [Control 3, N-(2,2,5,5-tetramethyl-1,3-dioxan-4-ylcarbonyl)-β-alanine 2(S)-[N′-(2,2-dimethylpropyl)-N′-nonylureido]-1(S)-cyclohexyl ester, reference compound] | 0.056 | 0.32 | 4.3 | 
0.089 | 82 to 84 | CC(C)c1cccc(C(C)C)c1NC(=O)CCCCCCCCSc1nc2cccc(C(F)(F)F)c2o1 [Example 75, 9-(7-trifluoromethylbenzoxazol-2-ylthio)-N-(2,6-diisopropylphenyl)nonanamide] |  | 0.012 | 7.4 | 
10 | 174 to 176 | CC(C)c1cccc(C(C)C)c1NC(=O)CCCCCSc1nc2cccc(-c3cc[nH]n3)c2o1 [Example 88, 6-[7-(pyrazol-3-yl)benzoxazol-2-ylthio]-N-(2,6-diisopropylphenyl)hexanamide] |  | 1.64 | 6.1 | 

Structure (SMILES) | IC50 (ACAT in HepG2 cells) [µM] | melting point [°C] | IC50 [1] [µM] | IC50 (ACAT in J774 cells) [µM] | IC50 (HepG2)/IC50 (J774) (ACAT in J774 cells) | IC50 [2] [µM]
CCCCCCCN(CCCCCSc1nc(-c2ccccc2)c(-c2ccccc2)[nH]1)c1nc2ccccc2o1 [Control 4, reference compound] | 0.75 |  | 0.037 | 0.12 | 6.3 | 0.026
